Some test systems named below: SK-MEL-2 melanoma; HCC-2998 colon; DU-145 prostate; BT-549 breast; UO-31 renal; SK-MEL-28 melanoma; PC-3 prostate; NCI/ADR-RES ovarian; RPMI-8226 leukemia; NCI-H460 lung.
Common to all, as to assay: NCI anticancer screen, dose series, 48 h

“And” between values parts separate entries of the source, which are not always exact repeats. Identical values can stand only once.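 Cells were grown in 96-well plates and exposed to each compound for 48 hours at five concentrations; endpoints were interpolated linearly between bracketing concentrations, or set to the highest concentration if not reached. Abbreviation: GI50, concentration required for 50% inhibition of growth. TGI denotes the concentration required for complete inhibition of growth.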 Some results are limits rather than exact numbers.

Regarding `O=C(/C=C/c1cccc(Oc2ccc(Cl)cc2)c1)c1ccccc1`, the GI50 is 148 µM with SK-MEL-2 melanoma; 117 µM with HCC-2998 colon; 69.7 µM in the assay with DU-145 prostate; 31.6 µM in the assay with BT-549 breast; 17.3 µM with UO-31 renal; 29.7 µM in the assay with SK-MEL-28 melanoma. Also, the GI50 in the assay on PC-3 prostate was 19.7 µM; in the assay on NCI/ADR-RES ovarian it was 37.1 µM; in the assay on RPMI-8226 leukemia, 25.3 µM; with NCI-H460 lung it was 60.1 µM. Besides, the TGI was 336 µM in the assay with SK-MEL-2 melanoma; 255 µM in the assay on HCC-2998 colon; 207 µM with DU-145 prostate; 97.5 µM in the assay with BT-549 breast; 34.1 µM with UO-31 renal; 107 µM in the assay on SK-MEL-28 melanoma. The TGI with PC-3 prostate turned out to be 37.8 µM; with NCI/ADR-RES ovarian, 232 µM; in the assay on RPMI-8226 leukemia, 61 µM; in the assay on NCI-H460 lung, 208 µM.

With `CC/C(=C(/c1ccc(/C=C/C(=O)O)cc1)c1ccc2[nH]ncc2c1)c1ccc(F)cc1Cl`, the GI50 is 10.2 µM with SK-MEL-2 melanoma; 13.8 µM in the assay on HCC-2998 colon; 14.4 µM in the assay on DU-145 prostate; 7.79 µM with BT-549 breast; 11.2 µM in the assay with UO-31 renal; 7.25 µM with SK-MEL-28 melanoma. Besides, the GI50 was 7.95 µM in the assay with PC-3 prostate, 9.08 µM in the assay on NCI/ADR-RES ovarian, 7.72 µM in the assay with RPMI-8226 leukemia and 10.7 µM in the assay with NCI-H460 lung. The TGI turned out to be 27 µM with SK-MEL-2 melanoma; 29.8 µM with HCC-2998 colon; 27.6 µM in the assay with DU-145 prostate; 22.7 µM in the assay on BT-549 breast; 24.7 µM in the assay on UO-31 renal; 22.2 µM in the assay on SK-MEL-28 melanoma. Besides, the TGI with PC-3 prostate is 21.6 µM; in the assay on NCI/ADR-RES ovarian, 26.5 µM; in the assay with RPMI-8226 leukemia, 41 µM; in the assay with NCI-H460 lung, 27.7 µM.

For the molecule `N=C(N)c1ccc(OCCCCCOc2ccc(C(=N)N)cc2)cc1`, the GI50 was 7.11 µM in the assay with SK-MEL-2 melanoma; 7.15 µM with HCC-2998 colon; 5.64 µM in the assay on DU-145 prostate; 6.65 µM and 3.41 µM and 11.1 µM with BT-549 breast; 5.46 µM with SK-MEL-28 melanoma; 6.92 µM in the assay with PC-3 prostate. The GI50 in the assay on NCI/ADR-RES ovarian is 27.3 µM; in the assay with RPMI-8226 leukemia, 3.81 µM and 22.6 µM and 6.87 µM; in the assay with NCI-H460 lung it was 1.68 µM. The TGI was 16.9 µM and 47.1 µM and 22.4 µM in the assay on SK-MEL-2 melanoma; 40.4 µM and 28.3 µM with HCC-2998 colon; 11.9 µM and 27.9 µM and 28.7 µM with DU-145 prostate; 14.1 µM and 16 µM and 25.3 µM in the assay with BT-549 breast; over 100 µM in the assay on UO-31 renal; 12.3 µM and 21.9 µM and 49 µM in the assay on SK-MEL-28 melanoma. The TGI is over 100 µM with PC-3 prostate; over 100 µM in the assay on NCI/ADR-RES ovarian; over 100 µM in the assay on RPMI-8226 leukemia; 9 µM and 17.4 µM and 18.3 µM in the assay on NCI-H460 lung.

With `CC1=NN(c2nc(N)nc(/C=C\c3ccccc3)n2)C(C)(C)C1`, the GI50 with SK-MEL-2 melanoma was 11.2 µM; in the assay with HCC-2998 colon, 11.9 µM; in the assay on DU-145 prostate, 3.16 µM; in the assay on BT-549 breast it was 5.09 µM; in the assay on UO-31 renal it was 13.5 µM; with SK-MEL-28 melanoma, 9.41 µM. Further, the GI50 with PC-3 prostate was 4.41 µM; with NCI/ADR-RES ovarian, 3.75 µM; in the assay with RPMI-8226 leukemia it was 3.02 µM; with NCI-H460 lung, 13.1 µM. The TGI amounted to 30.6 µM in the assay on SK-MEL-2 melanoma; 26.1 µM in the assay with HCC-2998 colon; 15.5 µM in the assay on DU-145 prostate; 19.1 µM with BT-549 breast; 28.5 µM in the assay with UO-31 renal; 22.3 µM in the assay on SK-MEL-28 melanoma. Further, the TGI with PC-3 prostate worked out at 19.7 µM; in the assay on NCI/ADR-RES ovarian, 24.7 µM; with RPMI-8226 leukemia, 15 µM; in the assay with NCI-H460 lung, 34.2 µM.

`CC(C)C/C(=N\NC(=O)c1ccncc1)c1cc(Cl)ccc1O`: the GI50 with SK-MEL-2 melanoma is 1.87 µM; in the assay with HCC-2998 colon it was 0.27 µM; in the assay with DU-145 prostate, 0.379 µM; with BT-549 breast it was 0.922 µM; in the assay with UO-31 renal, 0.211 µM; in the assay on SK-MEL-28 melanoma, 2.61 µM. Moreover, the GI50 was 1.01 µM with PC-3 prostate, 0.289 µM with NCI/ADR-RES ovarian, 0.461 µM with RPMI-8226 leukemia and 0.127 µM in the assay with NCI-H460 lung. Further, the TGI was 31.9 µM with SK-MEL-2 melanoma; 28.9 µM with DU-145 prostate; over 25.6 µM in the assay with BT-549 breast; 18.6 µM with UO-31 renal; over 69.4 µM in the assay on SK-MEL-28 melanoma; 73.5 µM with PC-3 prostate. In addition, the TGI was over 23.7 µM in the assay on NCI/ADR-RES ovarian, over 50.7 µM in the assay on RPMI-8226 leukemia and 31.8 µM in the assay on NCI-H460 lung.

`CCN(CC)CCS(=O)(=O)CCNc1ccnc2cc(Cl)ccc12`: the GI50 in the assay on SK-MEL-2 melanoma is 2.35 µM; with HCC-2998 colon, 8.81 µM; with DU-145 prostate it was 2.43 µM; in the assay on BT-549 breast, 2.94 µM; with UO-31 renal, 0.682 µM; in the assay on SK-MEL-28 melanoma it was 4.97 µM. Besides, the GI50 was 3.82 µM in the assay with PC-3 prostate, 1.12 µM with NCI/ADR-RES ovarian, 1.41 µM with RPMI-8226 leukemia and 2.74 µM in the assay with NCI-H460 lung. Besides, the TGI in the assay on SK-MEL-2 melanoma is 14.1 µM; in the assay with HCC-2998 colon, over 23.8 µM; in the assay with DU-145 prostate, over 32.8 µM; in the assay with BT-549 breast, 9.62 µM; in the assay with UO-31 renal, 8.8 µM; in the assay on SK-MEL-28 melanoma, 25.7 µM. Further, the TGI in the assay on PC-3 prostate is over 100 µM; with NCI/ADR-RES ovarian, 4.73 µM; in the assay with RPMI-8226 leukemia it was 21.6 µM; in the assay on NCI-H460 lung, over 25.7 µM.

As to `COc1ncc2cc1NS(=O)(=O)c1cccc(c1)C(=O)NCC1=CC=C(S1)c1ncnc3c1SC2=C3C`, the GI50 in the assay on SK-MEL-2 melanoma was 0.225 µM; in the assay with HCC-2998 colon it was 0.203 µM; with DU-145 prostate it was 0.42 µM; in the assay on BT-549 breast, 0.0855 µM; in the assay on UO-31 renal it was 0.0733 µM; in the assay with PC-3 prostate, 0.0797 µM. Besides, the GI50 in the assay on NCI/ADR-RES ovarian was 0.542 µM; in the assay with RPMI-8226 leukemia, 0.202 µM; with NCI-H460 lung, 0.37 µM. In addition, the TGI was 1.15 µM in the assay with SK-MEL-2 melanoma; 0.574 µM with HCC-2998 colon; 3.4 µM with DU-145 prostate; 0.505 µM with BT-549 breast; 1.7 µM in the assay with UO-31 renal; 2.77 µM in the assay with PC-3 prostate. The TGI was determined as 9.63 µM in the assay with NCI/ADR-RES ovarian, 0.588 µM in the assay on RPMI-8226 leukemia and 2.55 µM in the assay with NCI-H460 lung.
